{"source": "BindingDB's records for patent US10744117", "about": "(The Scripps Research Institute; The University of Toledo, 2020)", "biological_target": "T1, Peroxisome proliferator-activated receptor gamma (Homo sapiens, UniProt P37231)", "T1 sequence (P37231 whole entry)": "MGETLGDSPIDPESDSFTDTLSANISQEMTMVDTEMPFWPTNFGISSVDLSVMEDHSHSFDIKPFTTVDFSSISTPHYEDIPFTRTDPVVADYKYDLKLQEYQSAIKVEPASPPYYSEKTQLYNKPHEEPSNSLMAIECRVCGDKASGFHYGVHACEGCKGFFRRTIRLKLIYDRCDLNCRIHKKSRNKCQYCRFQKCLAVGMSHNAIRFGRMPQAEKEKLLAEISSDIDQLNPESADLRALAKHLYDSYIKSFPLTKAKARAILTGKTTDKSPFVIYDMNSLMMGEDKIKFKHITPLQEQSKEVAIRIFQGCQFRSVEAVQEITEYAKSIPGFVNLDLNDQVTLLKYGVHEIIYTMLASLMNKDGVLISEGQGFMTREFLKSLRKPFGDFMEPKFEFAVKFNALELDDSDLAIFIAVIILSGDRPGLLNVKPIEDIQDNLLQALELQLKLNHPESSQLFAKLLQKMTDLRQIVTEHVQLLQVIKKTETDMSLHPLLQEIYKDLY", "data": [{"smiles": "Cc1c(C)n(Cc2ccc(-c3ccc(Cl)c(O[C@H](C)C(=O)O)c3)cc2)c2ccc(C(=O)N[C@@H](C)c3ccc(C(C)(C)C)cc3)cc12", "note": "[US10744117, Compound IA-58]", "values": [{"measurement": "IC50", "value": 15, "unit": "µM"}]}]}
